From US5625031A, “Peptide inhibitors of the p33^cdk2 and p34^cdc2 cell cycle regulatory kinases and human papillomavirus E7 oncoprotein” (Bristol-Myers Squibb Company, priority 1994, dated 1997)
Where two headings read alike, the source gives them in different places. Where a SMILES comes first, the peptide text is derived from it. Where no end group is shown, it is not given here.

Tests used:
[1] = target: T1, p34^cdc2 (Homo sapiens, UniProt P06493); experiment: Histone H1 kinase activity of p107 30mer-sepharose bound versus immunoprecipitated p34^cdc2; format: biochemical; design: endogenous in cells; host or cells: HeLa
T1 sequence (P06493 whole entry): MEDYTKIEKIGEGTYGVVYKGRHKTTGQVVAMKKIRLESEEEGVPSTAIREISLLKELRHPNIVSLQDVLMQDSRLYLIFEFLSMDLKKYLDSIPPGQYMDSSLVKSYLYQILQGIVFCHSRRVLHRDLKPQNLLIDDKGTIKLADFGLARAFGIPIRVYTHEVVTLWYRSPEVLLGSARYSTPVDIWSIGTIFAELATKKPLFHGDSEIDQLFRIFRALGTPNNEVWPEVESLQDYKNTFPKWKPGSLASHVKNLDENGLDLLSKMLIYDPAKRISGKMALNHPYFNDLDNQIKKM
Method: (§1) Assay of p34^cdc2 Kinase Activity: Histone H1 kinase reactions were performed in 50 mM Tris, pH 8.0, 10 mM MgCl2, 0.5 mM DTT, 1 mM EGTA plus 0.1 mM ATP, 1 μCi γ-[^32 P]-ATP and 10 μg histone H1 (Boeringer Mannheim), and a source of p34^cdc2. Reactions were incubated at 30° C. for 20 minutes and stopped by the addition of protein gel sample buffer. Kinase reactions were separated by SDS-PAGE (12.5% gel). The bands were detected by autoradiography and the amount of ^32 P incorporated was quantitated using an Ambis Radioanalytic Imaging System.
In order to examine the effect of binding of p34^cdc2 to p107 30mer-sepharose on p34^cdc2 kinase activity, histone H1 kinase activities associated with p107 30mer-sepharose and immunoprecipitated p34^cdc2 were compared as follows. p34^cdc2 was bound to p107 30mer-sepharose as described in Example 2. Histone H1 kinase reactions were performed using either immunoprecipitated or p107 30mer-sepharose bound p34^cdc2. The amount of p34^cdc2 bound to p107 30mer-sepharose was compared with that contained within the immune complex by western blot. Two times the amount of immunoprecipitated p34^cdc2 used in the kinase reaction was blotted to facilitate easier detection. The amount of p34^cdc2 associated with the p107 30mer-sepharose was determined by densitometry to be ≥50 time greater than contained within the immune complexes.

[2] = target: T1, p34^cdc2; experiment: Peptide inhibition of p34^cdc2 immune complex histone H1 kinase activity; format: biochemical; design: endogenous in cells; host or cells: HeLa; conditions: for inhibition at 50 µM: 50 μM peptide, p34^cdc2 immune complex from HeLa cells, histone H1 substrate, read-out: p34^cdc2 Inhib. (%)
Method: (§2) HeLa Cell Lysates: HeLa cell extracts served as a source of p34^cdc2 and p33^cdk2 and were prepared as follows. HeLa cells were lysed in 20 mM N-[2-hydroxyethyl]piperazine-N'-[2-[…]] (HEPES), pH 7.0, 150 mM NaCl, 5 mM sodium vanadate, 10 mM Na4 P2 O7, 1 mM ZnCl2, 2 mM ethylene-diaminetetraacetic acid (EDTA), 2 mM ethylene glycol-bis(β-aminoethyl ether)-N,N,N',N'-tetraacetic acid (EGTA), 1 mM dithiothreitol (DTT), 0.25% (v:v) NP-40, 1 mM Benzamidine, 1 mM phenylmethylsulfonyl fluoride (PMSF) and 20 μg/ml each: N2 S2 O3, leupeptin, Antipan and Pepstatin, followed by centrifugation to remove cell debris.
Immunoprecipitation of p34^cdc2 : Immunoprecipitation of p34^cdc2 from HeLa cell extracts was performed using previously reported procedures (Harlow et al. (1988) in: Antibodies: A Laboratory Manual, ed. Harlow and Lane, Cold Spring Harbor: Cold Spring Harbor Laboratory, pp 421-470) and anti-p34^cdc2 antibody, G6 (Gibco, BRL). Immunoprecipitation by this method yields an activated kinase complex (Draetta et al. (1988), Cell 54:17-26).
as §1
As a further test of the association of p107 with p34^cdc2, and to define the minimal sequence necessary for interaction with p34^cdc2, the effect of p107 peptides on the p34^cdc2 immune complex histone H1 kinase activity was assessed. Both amino- and carboxy-terminal deletions were introduced into the original 30 amino acid peptide (see Table 1). The peptides were synthesized by standard methods and purified by HPLC. Immune complexes were formed as described in Example 4 and resuspended in kinase buffer plus 50 μM of the respective peptide solubilized in N,N-dimethylformamide, or an equal volume of solvent. After incubating the reactions for 15 minutes on ice, histone H1 and γ-[^32 P]-ATP were added and the kinase assays were performed and quantitated as described in Example 4.
The binding affinity of the 9mer peptide for p34^cdc2 was approximated by relating the percent inhibition of histone H1 kinase activity to peptide concentration. Reactions were performed as described in Example 4. The percent inhibition was quantitated using an Ambis Radioanalytic Imaging System. The percent inhibition was plotted versus the peptide concentration. In calculating a binding constant, it was assumed that the concentration of substrate and peptide were in vast excess of the p34^cdc2 protein, which was assumed to be limiting in the reaction.

[3] = target: T1, p34^cdc2; experiment: ELISA based competition assay: p34^cdc2 kinase from cell extracts binding to a p107 30mer coated plate; design: endogenous in cells; HeLa per the general methods
Source text: An ELISA based assay was developed to measure the activity of p107 peptides and their derivatives. A 96-well cluster plate coated with the p107 30mer binds to p34^cdc2 kinase from cell extracts. This binding is easily detectable with anti-p34^cdc2 antibodies and can be used to quantitate the affinity of the p107 wild type and mutant peptides for the p34^cdc2 kinase in addition to the kinase inhibition assay described in Example 7. A summary of all modifications to the original p107 peptides and their effect on binding and kinase inhibition is presented in Table 1. The affinity of the p107 9mer peptide for p34^cdc2 kinase is approximately 10 μM as measured by the ELISA based competition assay, which is in agreement with the binding constant approximated from the kinase inhibition assay as described in Example 7.

[4] = target: T2, HPV18-E7 protein (Human papillomavirus type 18, UniProt P06788); experiment: biochemical; format: binding
T2 construct: made in house
T2 sequence (P06788 whole entry): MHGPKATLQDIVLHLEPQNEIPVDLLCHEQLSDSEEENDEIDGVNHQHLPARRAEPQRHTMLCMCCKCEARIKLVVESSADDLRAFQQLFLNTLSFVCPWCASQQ
Method: The association of bacterially expressed HPV18-E7 protein with the p107 30mer peptide was analyzed using an ELISA assay. In the experiment depicted in FIG. 3A, a 96-well cluster plate was coated with p107 30mer peptide and incubated with increasing concentration of a MBP-E7 fusion protein or the MBP protein as a control. […] In the experiment depicted in FIG. 3B, MBP-E7 fusion protein (100 ng) was incubated with a p107 30mer peptide-coated plate in the presence of increasing concentrations of free p107 9mer peptide.

[5] = target: T1, p34^cdc2; experiment: p107 30mer-sepharose pull-down from HeLa cell lysate, western blot with anti-p34^cdc2 antibody; format: binding; design: endogenous in cells; host or cells: HeLa
Method: as §2
In order to test whether the α-helix II domain is involved in the interaction of Rb, p107 and cyclin E with p34^cdc2, a 30 amino acid peptide from p107 (residues 692-721: […] [SEQ ID NO:11]) encompassing α-helix II, was synthesized and assayed for its ability to associate with p34^cdc2. […] The concentration of 30mer linked to the bead was 0.85 μmole/ml as determined by HPLC. […] The bound proteins were eluted with increasing concentrations of NaCl, separated by sodium dodecyl sulfate-polyacrylamidegel electrophoresis (SDS-PAGE) (12.5% gel) and transferred to polyvinylidene difluoride (PVDF) membranes. p34^cdc2 was detected by probing the membrane with anti-p34^cdc2 antibody, G6 (Gibco, BRL) (see, Draetta et al. (1988), supra).

[6] = target: HPV16-E7 protein (Human papillomavirus type 16, UniProt P03129); conditions: CaSki cell extract, western blot
Chain of HPV16-E7 protein (P03129 whole entry, the tested form may be a part): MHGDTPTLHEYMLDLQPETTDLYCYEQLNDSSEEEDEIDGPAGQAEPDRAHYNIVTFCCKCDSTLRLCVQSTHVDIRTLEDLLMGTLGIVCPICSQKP
Source text: Rb and p107 form specific complexes with the adenovirus E1A oncoprotein and Rb forms a similar complex with the E7 oncoprotein human papillomavirus (HPV). In order to determine whether the p107 30mer peptide domain and Rb may interact with other tumor suppressor proteins or other cellular and viral ligands, p107 30mer peptide binding to cellular and bacterially expressed human papillomavirus (HPV)-E7 protein was examined. p107 30 amino acid peptide-sepharose, prepared as described in Example 2, was incubated with CaSki cell (HPV-16 positive cervical carcinoma) extract and assayed for the binding of E7 protein.

[7] = Table 1 binding, assay not given, taken as ELISA competition for p34^cdc2 binding, read-out: IC50

Compound | inhibition at 50 µM [2] [%] | IC50 [3, 7] [µM] | further results
CC[C@H](C)[C@H](NC(=O)[C@H](Cc1ccc(O)cc1)NC(=O)[C@H](Cc1ccccc1)NC(=O)[C@H](C)NC(=O)[C@H](CS)NC(=O)[C@H](CC(C)C)NC(=O)[C@H](CC(C)C)NC(=O)[C@H](CC(C)C)NC(=O)[C@H](CCC(N)=O)NC(=O)[C@H](CC(=O)O)NC(=O)[C@H](CC(C)C)NC(=O)[C@H](Cc1c[nH]cn1)NC(=O)[C@H](CCCNC(=N)N)NC(=O)[C@H](CC(=O)O)NC(=O)[C@H](CCCCN)NC(=O)[C@H](CCSC)NC(=O)[C@H](CC(C)C)NC(=O)[C@H](CC(=O)O)NC(=O)[C@@H]1CCCN1C(=O)[C@H](CS)NC(=O)[C@H](Cc1c[nH]cn1)NC(=O)[C@@H](NC(=O)[C@H](CC(C)C)NC(=O)[C@@H](NC(=O)[C@H](Cc1ccccc1)NC(=O)[C@H](CCC(=O)O)NC(=O)[C@@H](N)Cc1ccccc1)[C@@H](C)O)C(C)C)C(=O)N[C@@H](CCSC)C(=O)N[C@@H](C)C(=O)N[C@@H](CCCCN)C(=O)O [30mer] (H-FEFTLVHCPDLMKDRHLDQLLLCAFYIMAK-OH) |  |  | specific activity of peptide bound enzyme relative to the specific activity of the immune complex ([1]; normalized for the amount of p34^cdc2 protein): 1.4%
C[C@H](NC(=O)[C@@H](N)CS)C(=O)N[C@@H](Cc1ccccc1)C(=O)N[C@@H](Cc1ccc(O)cc1)C(=O)O [NC4mer, CAFY] (H-CAFY-OH) | 0 |  | 
AFYIMAK [N7mer, AFYIMAK] | 0 |  | 
CAFYI [NC5mer, CAFYI] | 82 | 13 | 
CAFYIGSPKK [NC5mer-SPKK, CAFYIGSPKK] | 80 |  | 
DLMKDRHLDQLLLCAFYIMAK [21mer] | 70 |  | 
KDRHLDQLLLCAFYIMAK [18mer, KDRHLDQLLLCAFYIMAK] | 80 |  | 
LCAAYIMAK [715FA, LCAAYIMAK] | 0 | > 100 | 
LCAFAIMAK [716YA, LCAFAIMAK] | 0 | 40 | 
LCAFFIMAK [716YF, LCAFFIMAK] | 80 | 25 | 
LCAFY [C5mer, LCAFY] | 0 |  | 
LCAFYI [C6mer, LCAFYI] | 79 |  | 
LCAFYIM [C7mer, LCAFYIM] | 70 |  | 
LCAFYIMAK [9mer, LCAFYIMAK] | 90 | 9 | Kd [4]: ~0.001 µM; Kd ([2]; percent inhibition plotted versus peptide concentration, FIG. 2, read-out: kd calculated from the point of 50% inhibition of histone H1 kinase activity): ~10 µM; Kd ([3]; ELISA based competition assay, read-out: affinity for p34^cdc2 kinase): ~10 µM
LCAFYIMQK [719AQ, LCAFYIMQK] | 75 |  | 
LCAFYKMAK [717IK, LCAFYKMAK] | 0 | > 100 | 
LCAKYIMAK [715FK, LCAKYIMAK] | 0 | > 100 | 
LCAYYIMAK [715FY, LCAYYIMAK] | 20 | 45 | 
LCEFYIMAK [714AE, LCEFYIMAK] | 0 | 23 | 
LDQLLLCAFYIMAK [14mer, LDQLLLCAFYIMAK] | 80 |  | 
LFAFYIMAK [713CF, LFAFYIMAK] | 60 | 15 | decrease in the peptide's ability to inhibit histone H1 kinase activity ([2]; versus 9mer): 30%
PKKKRKVCAFYI [SV-NC5mer, PKKKRKVCAFYI] | 0 |  | 
RKRCAFYI [PKG-NC5mer, RKRCAFYI] | 0 |  | 
RRCAFYI [RR-NC5mer, RRCAFYI] | 0 |  | 
SPKKGCAFYI [SPKK-NC5mer, SPKKGCAFYI] | 0 |  | 
YIMAK [N5mer, YIMAK] | 0 |  | IC50 [3]: > 100 µM
p107 30mer-sepharose: p107 30mer covalently linked to CH-activated sepharose 4B (FEFTLVHCPDLMKDRHLDQLLLCAFYIMAK; cysteine pairing not given here; also: covalently linked to CH-activated sepharose 4B) |  |  | binding to p34^cdc2 ([5]; HeLa cell lysate, western blot): binds; stability of the complex with p34^cdc2 to NaCl elution ([5]; elution with increasing concentrations of NaCl): stable to 2M NaCl; amount of p34^cdc2 associated relative to that within the immune complexes ([1]; western blot densitometry): ≥ 50 time greater; binding to HPV16-E7 protein [6]: did bind
